How the values were obtained:
KIT(JMminus) = biological target: T1, KIT(JMminus) (Homo sapiens, UniProt P10721); assay: Binding constant (Kd) measurement, phage-displayed kinase competition binding assay: KIT(JMminus)
T1 construct: KIT(JMminus); made in house
Excerpt: (§1) The term “ND” represents non-determined values.

KIT(JMminus,D816V) = biological target: T2, KIT(JMminus,D816V) (Homo sapiens, UniProt P10721, D816V); assay: Binding constant (Kd) measurement, phage-displayed kinase competition binding assay: KIT(JMminus,D816V)
T2 construct: KIT(JMminus,D816V); made in house
T2 sequence (P10721 589-937 D816V limits assumed): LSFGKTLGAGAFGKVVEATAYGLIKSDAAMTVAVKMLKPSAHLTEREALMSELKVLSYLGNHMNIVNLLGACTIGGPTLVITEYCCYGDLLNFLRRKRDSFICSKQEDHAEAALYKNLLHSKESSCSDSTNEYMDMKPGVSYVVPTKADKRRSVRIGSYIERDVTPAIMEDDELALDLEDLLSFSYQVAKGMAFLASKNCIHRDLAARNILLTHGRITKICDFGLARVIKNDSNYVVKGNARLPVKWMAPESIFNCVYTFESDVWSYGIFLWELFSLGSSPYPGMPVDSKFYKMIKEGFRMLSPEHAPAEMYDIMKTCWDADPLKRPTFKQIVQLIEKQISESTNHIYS
Excerpt: as §1

KIT(DKIN) = biological target: T3, KIT(DKIN) (Homo sapiens, UniProt P10721); assay: Binding constant (Kd) measurement, phage-displayed kinase competition binding assay: KIT(DKIN)
T3 construct: KIT(DKIN); made in house
T3 sequence (P10721 589-937 limits assumed): as the sequence (P10721 589-937 D816V limits assumed) above, with V228D counted along it
Excerpt: as §1

MKNK2(DKIN) = biological target: T4, MKNK2(DKIN) (Homo sapiens, UniProt Q9HBH9); assay: Binding constant (Kd) measurement, phage-displayed kinase competition binding assay: MKNK2(DKIN)
T4 construct: MKNK2(DKIN); made in house
T4 sequence (Q9HBH9 84-388 limits assumed): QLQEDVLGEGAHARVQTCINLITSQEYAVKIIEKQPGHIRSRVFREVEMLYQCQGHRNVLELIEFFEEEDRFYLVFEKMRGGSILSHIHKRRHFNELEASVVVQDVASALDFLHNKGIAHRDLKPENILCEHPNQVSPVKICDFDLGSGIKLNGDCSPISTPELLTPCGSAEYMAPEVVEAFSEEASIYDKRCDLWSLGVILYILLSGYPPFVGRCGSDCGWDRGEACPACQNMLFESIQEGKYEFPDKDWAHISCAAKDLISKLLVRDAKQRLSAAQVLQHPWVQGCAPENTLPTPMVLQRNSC
Excerpt: as §1

KIT(JMplus,V559D) = biological target: T5, KIT(JMplus,V559D) (Homo sapiens, UniProt P10721, V559D); assay: Binding constant (Kd) measurement, phage-displayed kinase competition binding assay: KIT(JMplus,V559D)
T5 construct: KIT(JMplus); made in house
T5 sequence (P10721 546-976 V559D limits assumed): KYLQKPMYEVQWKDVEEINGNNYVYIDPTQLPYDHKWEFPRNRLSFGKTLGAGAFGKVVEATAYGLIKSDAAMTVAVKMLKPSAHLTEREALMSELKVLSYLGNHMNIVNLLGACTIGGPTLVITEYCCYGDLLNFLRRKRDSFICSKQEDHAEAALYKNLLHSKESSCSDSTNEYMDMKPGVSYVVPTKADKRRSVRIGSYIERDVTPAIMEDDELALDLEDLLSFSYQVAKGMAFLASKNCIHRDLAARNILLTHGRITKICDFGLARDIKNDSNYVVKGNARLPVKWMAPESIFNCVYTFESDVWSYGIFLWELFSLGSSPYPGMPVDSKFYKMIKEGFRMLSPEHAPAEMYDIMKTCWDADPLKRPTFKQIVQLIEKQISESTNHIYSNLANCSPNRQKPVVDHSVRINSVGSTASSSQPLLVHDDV
Excerpt: as §1

CS0001 = assay: Cell Assay: CS0001:IC50; type: cell-based
KIT(JMplus) = KIT(JMplus) (Homo sapiens, UniProt P10721); assay: Binding constant (Kd) measurement, phage-displayed kinase competition binding assay: KIT(JMplus)
Chain of KIT(JMplus) (P10721 546-976 limits assumed): as the sequence (P10721 546-976 V559D limits assumed) above, with D14V counted along it
Excerpt: The components of the assays include human kinases expressed as fusions to T7 bacteriophage particles and immobilized ligands that bind to the ATP site of the kinases. […] If the test compound binds the kinase it competes with the immobilized ligand and prevents binding to the solid support. […] The results are read out by quantitating the amount of fusion protein bound to the solid support, which is accomplished by either traditional phage plaque assays or by quantitative PCR (qPCR) using the phage genome as a template.

T1 sequence (P10721 589-937 limits assumed): as the sequence (P10721 589-937 D816V limits assumed) above, with V228D counted along it

Row | SMILES | Kd (KIT(JMminus)) | Kd (KIT(JMminus,D816V)) | Kd (KIT(DKIN)) | Kd (MKNK2(DKIN)) | Kd (KIT(JMplus,V559D)) | IC50 (CS0001) | Kd (KIT(JMplus))
1 | CC(C)(C)c1cnc(CSc2cnc(NC(=O)Nc3ccon3)s2)o1 |  |  |  |  |  | < 0.1 µM | 
2 | COc1cc2nc(Cl)nc(Nc3ccc(NC(=O)Nc4cc(C(C)(C)C)on4)cc3)c2cc1OC [Compound O1, 1-(4-(2-chloro-6,7-dimethoxyquinazolin-4-ylamino)phenyl)-3-(5-tert-butylisoxazol-3-yl)urea] | < 0.1 µM | 1 to 10 µM | 0.1 to 1 µM |  | < 0.1 µM |  | 
3 | CC(C)(C)c1cc(NC(=O)Nc2ccc(NC(=O)c3ncccc3O)cc2)no1 [Compound N134] | < 0.1 µM | 0.1 to 1 µM | < 0.1 µM |  |  |  | < 0.1 µM
4 | CC(C)(C)c1cc(NC(=O)Nc2ccc(NC(=O)c3ccccn3)cc2)no1 [Compound N188] | < 0.1 µM | 0.1 to 1 µM | < 0.1 µM |  |  |  | < 0.1 µM
5 | Cc1ccc2[nH]c(C(=O)Nc3ccc(NC(=O)Nc4cc(C(C)(C)C)on4)cc3)cc2c1 [Compound N127] | < 0.1 µM | 1 to 10 µM |  |  |  |  | 
6 | CC(C)(C)c1cc(NC(=O)Nc2ccc(C(=O)/C=C/c3ccncc3)cc2)no1 |  |  |  |  |  | 0.1 to 1 µM | 
7 | CC(C)(C)c1cc(NC(=O)Nc2ccc(NC(=O)c3cc4ccccc4[nH]3)cc2)no1 [Compound N161] | < 0.1 µM | 1 to 10 µM |  |  |  |  | 
8 | CC(C)(C)c1cc(NC(=O)Nc2ccc(C(=O)Nc3nccnc3N)cc2)no1 [Compound N157] | < 0.1 µM | 1 to 10 µM |  | 0.1 to 1 µM |  |  | 

Other lines, results leading:

Row | Kd (KIT(JMminus)) | Kd (KIT(JMminus,D816V)) | Kd (KIT(DKIN)) | Kd (MKNK2(DKIN)) | Kd (KIT(JMplus,V559D)) | IC50 (CS0001) | Kd (KIT(JMplus)) | SMILES
9 | < 0.1 µM | 1 to 10 µM | < 0.1 µM | 0.1 to 1 µM |  |  |  | CC(C)(C)c1cc(NC(=O)Nc2ccc(OCC3CC3)cc2)no1 [Compound G37]
10 | < 0.1 µM | < 0.1 µM |  |  | < 0.1 µM |  |  | COc1cc2ncnc(Nc3ccc(NC(=O)Nc4cc(C(C)(C)C)on4)cc3)c2cc1OC [Compound O5]
11 | < 0.1 µM | 1 to 10 µM | 0.1 to 1 µM |  |  |  |  | CC(C)(C)c1cc(NC(=O)Nc2ccc(OCc3ccccc3F)cc2)no1 [Compound G12, 1-(4-(2-fluorobenzyloxy)phenyl)-3-(5-tert-butylisoxazol-3-yl)urea]
12 | < 0.1 µM | 0.1 to 1 µM |  | 0.1 to 1 µM |  |  |  | C=N/C(=N\C)Oc1cccc(C(=O)Nc2ccc(NC(=O)Nc3cc(C(C)(C)C)on3)cc2)c1 [Compound N74]
13 | < 0.1 µM | 1 to 10 µM |  |  |  |  |  | CC(C)(C)c1cc(NC(=O)Nc2ccc(N3C(=O)c4ccccc4C3=O)cc2)no1 [Compound A57]

— patent US20050192314A1, “Urea derivatives as C-kit modulators” (Ambit Biosciences Corporation, priority 2003, published 2005)
